Earlier results in US20120046286A1, “Novel Compounds” (priority 2009, published 2012).

Columns and labels:
neutrophils [1] = tested on: neutrophils
neutrophils [2] = conditions: treatment of neutrophils; Thelen et al. 1994

Row | SMILES | effect on neutrophil migration and superoxide release (neutrophils [1]) | effect on fMLP-induced respiratory burst response (neutrophils [2])
1 | O=c1cc(N2CCOCC2)oc2c(-c3ccccc3)cccc12 [LY294002] | block neutrophil migration and superoxide release | 
2 | COC[C@H]1OC(=O)c2coc3c2[C@@]1(C)C1=C(C3=O)[C@@H]2CCC(=O)[C@@]2(C)C[C@H]1OC(C)=O [wortmannin] | block neutrophil migration and superoxide release | prevents the fMLP-induced respiratory burst response
